From patent US12404232B2, “Compounds and compositions for intracellular delivery of therapeutic agents” (ModernaTX, Inc., priority 2015, dated 2025)

Columns and labels:
mice [1] = test: Luc expression (total flux) after intramuscular administration; assay type: in vivo; conditions: 6 hours after intramuscular administration, Luc mRNA and H10 mRNA
mice [2] = test: Cytokine induction (IL-6, IP-10) in mice after intravenous administration; assay type: in vivo; design: IL-6 / IP-10: unit not given here; conditions: 0.5 mpk; for IL-6 / IP-10: 6 hours; for Cytokine expression (pg/ml) IL-6 (6 h) / Cytokine expression (pg/ml) IP-10 (6 h): hEPO mRNA
Method in brief: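 Nanoparticle compositions given intravenously to mice at 0.5 mpk; serum cytokine concentrations measured at 6 hours, with MC3 formulation and PBS as comparators.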

rats [3] = test: hEPO expression in rats after intravenous administration; assay type: in vivo, rat; conditions: for hEPO expression: rat
Protocol: (§1) The expression of hEPO and cytokine induction in rats intravenously administered a nanoparticle composition at a dose of 2.0 mpk was measured at 6 h.
The expression of hEPO in rats intravenously administered a nanoparticle composition at a dose of 0.2 mpk or 2.0 mpk was measured at 6 hours. Table 16 summarize the ratio of hEPO expression levels using various nanoparticle compositions as compared to the hEPO expression level using MC3 formulation and the lipid levels in the liver measured 48 hours after administration, as described above. Tables 17 and 18 summarize the lipid levels in the liver and spleen measured 48 hours after administration of Compounds 28, 33, 53, and 54. Liver and spleen levels represent the average values calculated for 3 rats in each group. As is shown in Tables 17 and 18, less than 10% of Compounds 28, 33, 53, and 54 remained in the liver after 48 hours, while greater than 60% of MC3 remained.
(§2) Table 19 summarizes the hEPO expression, IP-10 induction, liver and spleen levels, and alanine aminotransferase (ALT) and aspartate aminotransferase (AST) measured upon intravenous administration of formulations including Compounds 48, 49, and 50 to rat at 0.2 and 2 mpk and hEPO mRNA. hEPO concentrations were measured 6 hours after administration, while cytokine induction and liver and spleen levels were measured 48 hours after administration. hEPO and IP-10 concentrations are presented in pg/ml, while liver levels are provided in ng/g. ALT and AST levels are presented in international units.
The expression of hEPO induced by intravenous administration to rats of nanoparticle compositions at various doses was measured at 2, 4, 6, 8, 24, and 48 hour time points. FIGS. 3-6 respectively summarize the hEPO expression measured upon intravenous administration of formulations including Compounds 26, 18, 25, and MC3 to rat at various doses. The lipid levels of Compound 26 in the liver after 48 hours were about 19%.
The expression of hEPO and lipid levels in the liver and spleen in rats intravenously administered a nanoparticle composition at a dose of 0.2 mpk was measured at various timepoints. Compounds 18 and 25 were selected for comparison with MC3. Lipids were formulated according to the standard MC3 formulation described above. Rats were administered intravenously a single 0.2 mpk dose and expression monitored at 0.25, 0.5, 1, 2, 4, 8, 24, and 48 hours after administration. […]

rats [4] = test: Cytokine induction (IP-10) in rats after intravenous administration; assay type: in vivo; conditions: rat, 6 hours after administration of hEPO nanoparticle compositions, 2.0 mpk
Protocol: as §1, §2

SMILES | Total flux (p/s) 0.01 mpk Dose (mice [1]) | IL-6 (mice [2]) | Cytokine expression (pg/ml) IL-6 (6 h) (mice [2]) | Cytokine expression (pg/ml) IP-10 (6 h) (mice [2]) | hEPO expression (rats [3]; i.v., 0.2 mpk, 0.25 h) | hEPO expression (rats [3]; i.v., 0.2 mpk, 0.5 h) | hEPO expression (rats [3]; i.v., 0.2 mpk, 1 h) | hEPO expression (rats [3]; i.v., 0.2 mpk, 2 h) | hEPO expression (rats [3]; i.v., 0.2 mpk, 4 h) | hEPO expression (rats [3]; i.v., 0.2 mpk, 8 h) | hEPO expression (rats [3]; i.v., 0.2 mpk, 24 h) | hEPO expression (rats [3]; i.v., 0.2 mpk, 48 h) | IP-10 (rats [4]) | Total flux (p/s) 0.001 mpk Dose (mice [1]) | IP-10 (mice [2]) | hEPO expression (rats [3]; 6 h, 2 mpk, intravenous) | Lipid/MC3 hEPO conc. ratio 0.2 mpk (rats [3]; rats, intravenous, 0.2 mpk, 6 hours) | Lipid/MC3 hEPO conc. ratio 2 mpk (rats [3]; rats, intravenous, 2 mpk, 6 hours)
CCCCCCCCCOC(=O)CCCCCCCN(CCO)CCCCCCCC(=O)OC(CCCCCCCC)CCCCCCCC [Compound 18, Heptadecan-9-yl 8-((2-hydroxyethyl)(8-(nonyloxy)-8-oxooctyl)amino)octanoate] | 8.84E+07 p/s | 78.76 | 10.16 pg/mL | 299.93 pg/mL | 20227 pg/mL | 20743 pg/mL | 194353 pg/mL | 238107 pg/mL | 514807 pg/mL | 915320 pg/mL | 412051 pg/mL | 52361 pg/mL | 517.3 pg/mL | – | – | – | – | –
CCCCCCCCCCCOC(=O)CCCCCN(CCO)CCCCCCCC(=O)OC(CCCCCCCC)CCCCCCCC [Compound 25, Heptadecan-9-yl 8-((2-hydroxyethyl)(6-oxo-6-(undecyloxy)hexyl)amino)octanoate] | 9.96E+07 p/s | 233.45 | – | – | 0 pg/mL | 19553 pg/mL | 434299 pg/mL | 2042807 pg/mL | 3176560 pg/mL | 2631633 pg/mL | 869374 pg/mL | 103089 pg/mL | 533.5 pg/mL | 3.53E+06 p/s | 1194.13 | – | – | –
CCCCCC=CCC=CCCCCCCCCC(CCCCCCCCC=CCC=CCCCCC)OC(=O)CCCN(C)C (centres unmarked) [MC3, heptatriaconta-6,9,28,31-tetraen-19-yl 4-(dimethylamino)butanoate, reference compound] | 3.68E+07 p/s | 124.42 | 19.85 pg/mL | 117.94 pg/mL | 0 pg/mL | 42457 pg/mL | 93720 pg/mL | 524093 pg/mL | 601307 pg/mL | 1536833 pg/mL | 703619 pg/mL | 64687 pg/mL | 688.3 pg/mL | 2.76E+06 p/s | 504.90 | 1.33e+07 pg/mL | 1 | 1
